One assay concerns Staphylococcus aureus. As to the kind of experiment: Minimum inhibitory concentration against Staphylococcus aureus Newman strain. In kind it is functional.
The next assay has as its target T1, Sortase A (Staphylococcus aureus, UniProt Q9S446).
T1 sequence (Q9S446 whole entry): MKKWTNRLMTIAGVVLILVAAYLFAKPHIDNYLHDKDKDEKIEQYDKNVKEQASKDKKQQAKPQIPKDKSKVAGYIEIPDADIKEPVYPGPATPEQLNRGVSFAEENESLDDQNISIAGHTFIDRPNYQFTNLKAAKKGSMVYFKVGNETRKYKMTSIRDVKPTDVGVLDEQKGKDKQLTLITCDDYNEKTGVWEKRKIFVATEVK
As to the kind of experiment: Inhibitory activity against Sortase A from Staphylococcus aureus.

≈ marks a conversion by molar mass, not a printed value.

What is called MIC is the least concentration at which growth counts as inhibited. Read a low MIC as a more susceptible organism. What is called IC50 is the concentration that gives 50% inhibition. The low end stands for inhibition by little substance, the high end for a need for much substance. Turning to `O=C1N[C@H](c2c[nH]c3cc(Br)ccc23)CN=C1c1c[nH]c2ccccc12`, in the assay with Staphylococcus aureus, the MIC was 6.25 µg/mL (≈ 15.3 µM). At Sortase A, this compound gave an IC50 of 83.6 µM.
For `O=C1NC[C@@H](c2c[nH]c3cc(Br)ccc23)N=C1c1c[nH]c2ccccc12` [(R)-6'-DEBROMOHAMACANTHIN B] the same measures were 100 µg/mL (≈ 246 µM) and over 246 µM.
On the same counts, the results for `CC[C@H](CC[C@@H](C)[C@H]1CC[C@H]2[C@@H]3CC=C4C[C@@H](O[C@@H]5O[C@H](CO)[C@@H](O)[C@H](O)[C@H]5O)CC[C@]4(C)[C@H]3CC[C@]12C)C(C)C` [SITOGLUSIDE] are 200 µg/mL (≈ 347 µM) and 31.7 µM.
As to `O=C(c1nc(-c2c[nH]c3cc(Br)ccc23)c[nH]1)c1c[nH]c2cc(O)ccc12` [BROMOTOPSENTIN], in the assay on Staphylococcus aureus, the lowest concentration to inhibit growth (MIC) was 25 µg/mL (≈ 59.3 µM). This compound gave an IC50 at Sortase A of 39.6 µM.
At Sortase A, `O=C(c1nc(-c2c[nH]c3ccccc23)c[nH]1)c1c[nH]c2ccccc12` [DEOXYTOPSENTIN] showed an IC50 of 48 µM.
In turn, `O=C1N[C@@H](c2c[nH]c3cc(Br)ccc23)CN[C@@H]1c1c[nH]c2cc(Br)ccc12` gave an MIC with Staphylococcus aureus of 12.5 µg/mL (≈ 25.6 µM). The IC50 at Sortase A was over 205 µM.
On the same counts, the results for `O=C1N[C@H](c2c[nH]c3cc(Br)ccc23)CN=C1c1c[nH]c2cc(Br)ccc12` are 3.12 µg/mL (≈ 6.42 µM) and 178 µM.
For `O=C(c1ncc(-c2c[nH]c3cc(Br)ccc23)[nH]1)c1c[nH]c2ccccc12` [BROMODEOXYTOPSENTIN], it took 48 µM to reach half-maximal inhibition against Sortase A (IC50).
With `O=C1NC[C@@H](c2c[nH]c3cc(Br)ccc23)N=C1c1c[nH]c2cc(Br)ccc12`, it took 6.25 µg/mL (≈ 12.9 µM) to inhibit growth against Staphylococcus aureus (MIC). Also, half-maximal inhibition on Sortase A (IC50) was put at 142 µM.

The record behind these values is ChEMBL document CHEMBL1143488, “Bis(indole) alkaloids as sortase A inhibitors from the sponge Spongosorites sp” (Bioorg Med Chem Lett, 2005).
